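Five concentrations, 48 hours, 96-well plates. Abbreviation: GI50, concentration required for 50% inhibition of growth. TGI marks complete inhibition of growth.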
Assays:
Test in all cases: growth of human tumour cells (NCI), 48 h
786-0 renal = test system: 786-0 renal
SK-OV-3 ovarian = test system: SK-OV-3 ovarian
K-562 leukemia = test system: K-562 leukemia
HS 578T breast = test system: HS 578T breast
HCT-15 colon = test system: HCT-15 colon
LOX IMVI melanoma = test system: LOX IMVI melanoma
A498 renal = test system: A498 renal
MDA-MB-435 = test system: MDA-MB-435
U251 CNS = test system: U251 CNS
DU-145 prostate = test system: DU-145 prostate
SK-MEL-5 melanoma = test system: SK-MEL-5 melanoma
HOP-92 NSCLC = test system: HOP-92 NSCLC
UACC-257 melanoma = test system: UACC-257 melanoma
M14 melanoma = test system: M14 melanoma
RPMI-8226 leukemia = test system: RPMI-8226 leukemia
HCT-116 colon = test system: HCT-116 colon
SR leukemia = test system: SR leukemia
CAKI-1 renal = test system: CAKI-1 renal
MCF7 breast = test system: MCF7 breast
MOLT-4 leukemia = test system: MOLT-4 leukemia
UO-31 renal = test system: UO-31 renal
HCC-2998 colon = test system: HCC-2998 colon
SF-295 CNS = test system: SF-295 CNS
UACC-62 melanoma = test system: UACC-62 melanoma
OVCAR-4 ovarian = test system: OVCAR-4 ovarian
NCI-H522 lung = test system: NCI-H522 lung
OVCAR-3 ovarian = test system: OVCAR-3 ovarian
SF-268 CNS = test system: SF-268 CNS
PC-3 prostate = test system: PC-3 prostate
SNB-19 CNS = test system: SNB-19 CNS
KM12 colon = test system: KM12 colon
MDA-MB-468 breast = test system: MDA-MB-468 breast
NCI-H460 lung = test system: NCI-H460 lung
HOP-62 NSCLC = test system: HOP-62 NSCLC
SNB-75 CNS = test system: SNB-75 CNS
A549 NSCLC = test system: A549 NSCLC
OVCAR-5 ovarian = test system: OVCAR-5 ovarian
RXF 393 renal = test system: RXF 393 renal
SK-MEL-28 melanoma = test system: SK-MEL-28 melanoma
SW-620 colon = test system: SW-620 colon
IGROV1 ovarian = test system: IGROV1 ovarian
T-47D breast = test system: T-47D breast
HL-60(TB) leukemia = test system: HL-60(TB) leukemia
CCRF-CEM leukemia = test system: CCRF-CEM leukemia
OVCAR-8 ovarian = test system: OVCAR-8 ovarian
MDA-MB-231 breast = test system: MDA-MB-231 breast
NCI-H23 lung = test system: NCI-H23 lung
SN12C renal = test system: SN12C renal
SF-539 CNS = test system: SF-539 CNS
NCI-H226 lung = test system: NCI-H226 lung
EKVX NSCLC = test system: EKVX NSCLC
TK-10 renal = test system: TK-10 renal
BT-549 breast = test system: BT-549 breast
MALME-3M melanoma = test system: MALME-3M melanoma
HT29 colon = test system: HT29 colon
COLO 205 colon = test system: COLO 205 colon
ACHN renal = test system: ACHN renal

Molecule `COc1ccc(C(SCCNCc2cc(N(C)C)ccn2)(c2ccccc2)c2ccccc2)cc1` has a GI50 (786-0 renal) of 1.4 µM, a TGI (786-0 renal) of 7.55 µM and a GI50 (SK-OV-3 ovarian) of 3.57 µM. For the same molecule, the TGI (SK-OV-3 ovarian) was 15.9 µM, the GI50 (K-562 leukemia) was 0.697 µM and the TGI (K-562 leukemia) was 13.6 µM. The GI50 (HS 578T breast) was 1.37 µM, the TGI (HS 578T breast) was 9.32 µM and the GI50 (HCT-15 colon) was 0.432 µM. For the same molecule, the TGI (HCT-15 colon) was 11.6 µM, the GI50 (LOX IMVI melanoma) was 2.04 µM and the TGI (LOX IMVI melanoma) was 11.4 µM. For the same molecule, the GI50 (A498 renal) was 15.6 µM, the TGI (A498 renal) was 30.1 µM and the GI50 (MDA-MB-435) was 0.214 µM. It also gave a TGI (MDA-MB-435) of 0.475 µM, a GI50 (U251 CNS) of 0.592 µM and a TGI (U251 CNS) of 13.6 µM. For the same molecule, the GI50 (DU-145 prostate) was 3.5 µM, the TGI (DU-145 prostate) was 12.8 µM and the GI50 (SK-MEL-5 melanoma) was 1.08 µM. For the same molecule, the TGI (SK-MEL-5 melanoma) was 3.82 µM, the GI50 (HOP-92 NSCLC) was 2.16 µM and the TGI (HOP-92 NSCLC) was 11 µM. The GI50 (UACC-257 melanoma) was 5.71 µM, the TGI (UACC-257 melanoma) was 19.8 µM and the GI50 (M14 melanoma) was 0.447 µM. The TGI (M14 melanoma) was 2.48 µM, the GI50 (RPMI-8226 leukemia) was 0.954 µM and the TGI (RPMI-8226 leukemia) was 10 µM. It also gave a GI50 (HCT-116 colon) of 0.324 µM, a TGI (HCT-116 colon) of 10.5 µM and a GI50 (SR leukemia) of 0.566 µM. It also gave a TGI (SR leukemia) greater than 100 µM, a GI50 (CAKI-1 renal) of 3.54 µM and a TGI (CAKI-1 renal) of 17.6 µM. The GI50 (MCF7 breast) was 0.322 µM, the TGI (MCF7 breast) was 11 µM and the GI50 (MOLT-4 leukemia) was 3.47 µM. It also gave a TGI (MOLT-4 leukemia) of 13.6 µM, a GI50 (UO-31 renal) of 3.78 µM and a TGI (UO-31 renal) of 17.5 µM. It also gave a GI50 (HCC-2998 colon) of 0.7 µM, a TGI (HCC-2998 colon) of 2.14 µM and a GI50 (SF-295 CNS) of 0.618 µM. It also gave a TGI (SF-295 CNS) of 11.5 µM, a GI50 (UACC-62 melanoma) of 4.22 µM and a TGI (UACC-62 melanoma) of 16.6 µM. It also gave a GI50 (OVCAR-4 ovarian) of 9.25 µM, a TGI (OVCAR-4 ovarian) of 22.7 µM and a GI50 (NCI-H522 lung) of 0.707 µM. The TGI (NCI-H522 lung) was 5.77 µM, the GI50 (OVCAR-3 ovarian) was 2.53 µM and the TGI (OVCAR-3 ovarian) was 12.4 µM. For the same molecule, the GI50 (SF-268 CNS) was 4.02 µM, the TGI (SF-268 CNS) was 20.4 µM and the GI50 (PC-3 prostate) was 1.67 µM. It also gave a TGI (PC-3 prostate) of 15 µM, a GI50 (SNB-19 CNS) of 3.48 µM and a TGI (SNB-19 CNS) of 15.3 µM. The GI50 (KM12 colon) was 3.66 µM, the TGI (KM12 colon) was 16 µM and the GI50 (MDA-MB-468 breast) was 0.544 µM. For the same molecule, the TGI (MDA-MB-468 breast) was 2.9 µM, the GI50 (NCI-H460 lung) was 2.93 µM and the TGI (NCI-H460 lung) was 12.5 µM. The GI50 (HOP-62 NSCLC) was 4.34 µM, the TGI (HOP-62 NSCLC) was 19.8 µM and the GI50 (SNB-75 CNS) was 2.86 µM. For the same molecule, the TGI (SNB-75 CNS) was 13.6 µM, the GI50 (A549 NSCLC) was 3.79 µM and the TGI (A549 NSCLC) was 20 µM. The GI50 (OVCAR-5 ovarian) was 3.07 µM, the TGI (OVCAR-5 ovarian) was 11.9 µM and the GI50 (RXF 393 renal) was 2.61 µM. For the same molecule, the TGI (RXF 393 renal) was 11.5 µM, the GI50 (SK-MEL-28 melanoma) was 5.6 µM and the TGI (SK-MEL-28 melanoma) was 18.7 µM. It also gave a GI50 (SW-620 colon) of 0.916 µM, a TGI (SW-620 colon) of 16.8 µM and a GI50 (IGROV1 ovarian) of 3.43 µM. The TGI (IGROV1 ovarian) was 17.1 µM, the GI50 (T-47D breast) was 4.7 µM and the TGI (T-47D breast) was 21.9 µM. The GI50 (HL-60(TB) leukemia) was 2.11 µM, the TGI (HL-60(TB) leukemia) was 5.28 µM and the GI50 (CCRF-CEM leukemia) was 0.468 µM. For the same molecule, the TGI (CCRF-CEM leukemia) was 15.4 µM, the GI50 (OVCAR-8 ovarian) was 1.87 µM and the TGI (OVCAR-8 ovarian) was 18.1 µM. For the same molecule, the GI50 (MDA-MB-231 breast) was 1.48 µM, the TGI (MDA-MB-231 breast) was 4.8 µM and the GI50 (NCI-H23 lung) was 3.12 µM. It also gave a TGI (NCI-H23 lung) of 13.1 µM, a GI50 (SN12C renal) of 1.49 µM and a TGI (SN12C renal) of 13.7 µM. It also gave a GI50 (SF-539 CNS) of 1.61 µM, a TGI (SF-539 CNS) of 3.83 µM and a GI50 (NCI-H226 lung) of 4.45 µM. It also gave a TGI (NCI-H226 lung) of 17.8 µM, a GI50 (EKVX NSCLC) of 1.5 µM and a TGI (EKVX NSCLC) of 17.1 µM. The GI50 (TK-10 renal) was 9.54 µM, the TGI (TK-10 renal) was 21.7 µM and the GI50 (BT-549 breast) was 1.92 µM. It also gave a TGI (BT-549 breast) of 6.03 µM, a GI50 (MALME-3M melanoma) of 3.36 µM and a TGI (MALME-3M melanoma) of 15.8 µM. It also gave a GI50 (HT29 colon) of 2.25 µM, a TGI (HT29 colon) of 5.66 µM and a GI50 (COLO 205 colon) of 1.09 µM. The TGI (COLO 205 colon) was 2.97 µM, the GI50 (ACHN renal) was 2.48 µM and the TGI (ACHN renal) was 18.5 µM.
